Results: PubChem BioAssay AID330 (DTP/NCI, 2004)
Values joined by “and” are separate entries in the source; they are usually repeats but may differ in a detail not shown here. Identical values can stand only once. Inconclusive results and toxic doses are left out. Rule for the calls: active = survival T/C of 150% or more; inactive = T/C below 125% in these data.

Tested on: P388 leukemia ip, CD2F1 mice, survival T/C
Assay: NCI In Vivo Anticancer Drug Screen. Data for tumor model P388 Leukemia (intraperitoneal) in CD2F1 (CDF1) mice
Conditions: endpoint: median survival time, higher = longer survival
In short: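 Mice carrying the transplanted tumor received test compound or vehicle. Survival was recorded in each group, and the value is the treated-group measurement divided by that of the vehicle-treated control group.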

[1] = dose: 100.0 mg/kg/injection, schedule: Q04DX003 (ip), vehicle: saline
[2] = dose: 200.0 mg/kg/injection, schedule: Q04DX003 (ip), vehicle: saline
[3] = dose: 50.0 mg/kg/injection, schedule: Q01DX009 (ip), vehicle: saline with Tween-80
[4] = dose: 100.0 mg/kg/injection, schedule: Q01DX009 (ip), vehicle: saline with Tween-80
[5] = dose: 200.0 mg/kg/injection, schedule: Q01DX009 (ip), vehicle: saline with Tween-80
[6] = dose: 50.0 mg/kg/injection, schedule: Q01DX005 (ip), vehicle: saline with Tween-80
[7] = dose: 100.0 mg/kg/injection, schedule: Q01DX005 (ip), vehicle: saline with Tween-80
[8] = dose: 200.0 mg/kg/injection, schedule: Q01DX005 (ip), vehicle: saline with Tween-80
[9] = dose: 50.0 mg/kg/injection, schedule: Q01DX009 (ip), vehicle: Klucel (hydroxypropylcellulose) (HPC)
[10] = dose: 50.0 mg/kg/injection, schedule: Q01DX005 (ip), vehicle: saline
[11] = dose: 100.0 mg/kg/injection, schedule: Q01DX005 (ip), vehicle: saline
[12] = dose: 200.0 mg/kg/injection, schedule: Q01DX005 (ip), vehicle: saline
[13] = dose: 100.0 mg/kg/injection, schedule: Q04DX003 (ip), vehicle: saline with Tween-80
[14] = dose: 200.0 mg/kg/injection, schedule: Q04DX003 (ip), vehicle: saline with Tween-80
[15] = dose: 400.0 mg/kg/injection, schedule: Q04DX003 (ip), vehicle: saline with Tween-80
[16] = dose: 50.0 mg/kg/injection, schedule: Q01DX005 (ip), vehicle: Klucel (hydroxypropylcellulose) (HPC)
[17] = dose: 100.0 mg/kg/injection, schedule: Q01DX005 (ip), vehicle: Klucel (hydroxypropylcellulose) (HPC)
[18] = dose: 100.0 mg/kg/injection, schedule: Q01DX001 (ip), vehicle: saline with Tween-80
[19] = dose: 200.0 mg/kg/injection, schedule: Q01DX001 (ip), vehicle: saline with Tween-80
[20] = dose: 400.0 mg/kg/injection, schedule: Q01DX001 (ip), vehicle: saline with Tween-80
[21] = dose: 25.0 mg/kg/injection, schedule: Q01DX009 (ip), vehicle: saline with Tween-80
[22] = dose: 12.5 mg/kg/injection, schedule: Q01DX009 (ip), vehicle: saline with Tween-80

Measured: T/C

CCOC(=O)c1cnc(N(C)C)nc1SC(=N)N
inactive: dose: 50.0 mg/kg/injection, schedule: Q04DX003 (ip), vehicle: saline 100 % of control | [1] 95 % of control | [2] 104 % of control

Cn1cc([N+](=O)[O-])c([N+](=O)[O-])c1
inactive: [3] 102 % of control | [4] 103 % of control | [5] 102 % of control

NC(=S)c1ccc(N=Cc2cccs2)cc1
inactive: dose: 100.0 mg/kg/injection, schedule: Q01DX001 (ip), vehicle: Klucel (hydroxypropylcellulose) (HPC) 108 % of control | dose: 200.0 mg/kg/injection, schedule: Q01DX001 (ip), vehicle: Klucel (hydroxypropylcellulose) (HPC) 105 % of control | dose: 400.0 mg/kg/injection, schedule: Q01DX001 (ip), vehicle: Klucel (hydroxypropylcellulose) (HPC) 102 % of control

NNC(=O)SCCC(=O)O
inactive: [6] 97 % of control | [7] 97 % of control | [8] 101 % of control

COc1ccc(C(=O)c2cccnc2C(=O)O)cc1
inactive: [3] 105 % of control | [4] 107 % of control | [5] 107 % of control

O=C(CS)Nc1ccccn1
inactive: dose: 12.5 mg/kg/injection, schedule: Q01DX009 (ip), vehicle: Klucel (hydroxypropylcellulose) (HPC) 104 % of control | dose: 25.0 mg/kg/injection, schedule: Q01DX009 (ip), vehicle: Klucel (hydroxypropylcellulose) (HPC) 103 % of control | [9] 103 % of control and 114 % of control

COC(=O)C(C)(O)C(C)C1CO1 (stereo unspecified)
inactive: [10] 98 % of control | [11] 101 % of control | [12] 121 % of control

COc1ccc(Cc2n[nH]c(=S)n2-c2cc(C)ccc2C)cc1OC
inactive: dose: 60.0 mg/kg/injection, schedule: Q01DX005 (ip), vehicle: saline with Tween-80 102 % of control | dose: 120.0 mg/kg/injection, schedule: Q01DX005 (ip), vehicle: saline with Tween-80 91 % of control | dose: 240.0 mg/kg/injection, schedule: Q01DX005 (ip), vehicle: saline with Tween-80 93 % of control

O=C1NC(=O)C2(CCc3ccccc3C2)N1 (stereo unspecified)
inactive: [3] 100 % of control | [4] 100 % of control | [5] 96 % of control | dose: 400.0 mg/kg/injection, schedule: Q01DX009 (ip), vehicle: saline with Tween-80 97 % of control

C=CCC12CC(C)OC1=Nc1ccccc1NC2=O (stereo unspecified)
inactive: [6] 98 % of control | [7] 100 % of control | [8] 104 % of control

NC(CSSCC(N)C(=O)NCC(=O)O)C(=O)NCC(=O)O (stereo unspecified)
inactive: [10] 106 % of control | [11] 100 % of control | [12] 104 % of control

CC(OS(C)(=O)=O)C(C)OS(C)(=O)=O (stereo unspecified)
inactive: dose: 100.0 mg/kg/injection, schedule: Q04DX003 (ip), vehicle: Klucel (hydroxypropylcellulose) (HPC) 89 % of control | dose: 200.0 mg/kg/injection, schedule: Q04DX003 (ip), vehicle: Klucel (hydroxypropylcellulose) (HPC) 116 % of control | dose: 400.0 mg/kg/injection, schedule: Q04DX003 (ip), vehicle: Klucel (hydroxypropylcellulose) (HPC) 120 % of control

O=C1OC(c2ccccc2)=N/C1=C\c1cccc([N+](=O)[O-])c1
inactive: dose: 50.0 mg/kg/injection, schedule: Q04DX002 (ip), vehicle: saline with Tween-80 96 % of control | dose: 100.0 mg/kg/injection, schedule: Q04DX002 (ip), vehicle: saline with Tween-80 97 % of control | dose: 200.0 mg/kg/injection, schedule: Q04DX002 (ip), vehicle: saline with Tween-80 99 % of control | dose: 400.0 mg/kg/injection, schedule: Q04DX002 (ip), vehicle: saline with Tween-80 99 % of control

CCO/C(C)=[N+](/[O-])S(=O)(=O)c1c(C)cc(C)cc1C
inactive: dose: 100.0 mg/kg/injection, schedule: Q01DX001 (ip), vehicle: saline 103 % of control | dose: 200.0 mg/kg/injection, schedule: Q01DX001 (ip), vehicle: saline 100 % of control | dose: 400.0 mg/kg/injection, schedule: Q01DX001 (ip), vehicle: saline 104 % of control

CCc1c(Cc2[nH]c(C=O)c(C)c2CC)[nH]c(C=O)c1C
inactive: [6] 100 % of control | [7] 100 % of control | [8] 100 % of control

Cn1c2c(c(=O)c3c4c(=O)c5c([nH]c4ccc31)CCCC5)CCCC2
inactive: [13] 100 % of control | [14] 94 % of control | [15] 86 % of control

CNC(=O)CCl
inactive: [1] 99 % of control | [2] 99 % of control

C/C=C/C=C/C1=C2C(=O)N(c3ccccc3)N=C2CC(C)O1 (stereo unspecified)
inactive: [16] 100 % of control | [17] 104 % of control

Cn1ncc2c(N)ncnc21
inactive: [3] 118 % of control | [13] 109 % of control | [14] 123 % of control

CSc1nc2n(Cc3cn(C)c(=O)n(C)c3=O)cc(C)cc-2c(=O)n1
inactive: [18] 96 % of control | [19] 94 % of control | [20] 94 % of control

COc1ccc2cc3[n+](c(CC(=O)O)c2c1OC)CCc1cc2c(cc1-3)OCO2
inactive: dose: 0.63 mg/kg/injection, schedule: Q01DX009 (ip), vehicle: water 101 % of control | dose: 1.25 mg/kg/injection, schedule: Q01DX009 (ip), vehicle: water 88 % of control | dose: 2.5 mg/kg/injection, schedule: Q01DX009 (ip), vehicle: water 105 % of control | dose: 5.0 mg/kg/injection, schedule: Q01DX009 (ip), vehicle: water 117 % of control | dose: 10.0 mg/kg/injection, schedule: Q01DX009 (ip), vehicle: water 118 % of control

COc1ccc(CC(=O)c2ccc(OC)cc2O)cc1
inactive: [18] 103 % of control | [19] 104 % of control | [20] 101 % of control

CCCC[P+](CCCC)(CCCC)CC(=O)O
inactive: [21] 97 % of control | [3] 100 % of control | [4] 95 % of control

CCCSc1nc2ccc(NC(=O)/C=C/C(=O)O)cc2s1
inactive: [9] 107 % of control | dose: 100.0 mg/kg/injection, schedule: Q01DX009 (ip), vehicle: Klucel (hydroxypropylcellulose) (HPC) 96 % of control | dose: 200.0 mg/kg/injection, schedule: Q01DX009 (ip), vehicle: Klucel (hydroxypropylcellulose) (HPC) 103 % of control

CC(C)=CCc1c2c(c(O)c3c(=O)c(-c4ccc(O)cc4O)coc13)C=CC(C)(C)O2
inactive: [21] 104 % of control | [3] 102 % of control | [4] 104 % of control | [5] 99 % of control

NC(=S)Oc1ccccc1
inactive: dose: 6.25 mg/kg/injection, schedule: Q01DX009 (ip), vehicle: saline with Tween-80 103 % of control | [22] 100 % of control | [21] 106 % of control | [4] 93 % of control | [5] 93 % of control

Cc1ccccc1N=C(CCl)Nc1ccccc1C
inactive: [6] 94 % of control | [7] 99 % of control

CN(C)C=Nc1cc(Cl)c(Cl)cc1Cl
inactive: [22] 108 % of control | [21] 106 % of control | [3] 106 % of control

C=C(C)/C=C/S(=O)c1ccccc1 (stereo unspecified)
inactive: [16] 100 % of control | [17] 97 % of control | dose: 200.0 mg/kg/injection, schedule: Q01DX005 (ip), vehicle: Klucel (hydroxypropylcellulose) (HPC) 98 % of control

O=C1CCCCCCCCCCC1C(O)(C(F)(F)F)C(F)(F)F (stereo unspecified)
inactive: [13] 100 % of control | [14] 90 % of control | [15] 100 % of control

CCC(=O)[O-].CCC(=O)[O-].CCC(=O)[O-].CCC(=O)[O-].O=S(=O)(O)O.[Re].[Re]
inactive: dose: 72.0 mg/kg/injection, schedule: Q01DX009 (ip), vehicle: saline 107 % of control | dose: 103.0 mg/kg/injection, schedule: Q01DX009 (ip), vehicle: saline 100 % of control | dose: 147.0 mg/kg/injection, schedule: Q01DX009 (ip), vehicle: saline 102 % of control | dose: 171.5 mg/kg/injection, schedule: Q01DX009 (ip), vehicle: suspension in saline 109 % of control | dose: 210.0 mg/kg/injection, schedule: Q01DX009 (ip), vehicle: saline 108 % of control | dose: 245.0 mg/kg/injection, schedule: Q01DX009 (ip), vehicle: suspension in saline 120 % of control | dose: 300.0 mg/kg/injection, schedule: Q01DX009 (ip), vehicle: saline 91 % of control
